Legend:
[1] = test system: stationary phase cells of MRSA; assay: Antibacterial activity against stationary phase bacteria; assay type: cell-based, S. aureus; settings: for time to complete eradication: stationary phase MRSA
Protocol: The stationary phase cells and persister cells are metabolically repressed and phenotypically different from the log-phase cells.[27] For activity, the commonly used drugs, vancomycin, and linezolid require actively ongoing cellular processes. They are therefore ineffective against non-dividing bacteria. […] The integrity of the bacterial membrane is imperative to survival irrespective of metabolic state. […] It completely eradicated cells in 24 h at 10 μM and within 6 h at 20 μM. […]
Antibacterial activity against stationary phase bacteria
MRSA ATCC 33591 was grown to mid-log phase at 37 °C. The bacterial suspension was diluted 1000-fold in nutrient media and allowed to reach stationary phase in 16 h. The bacterial suspension was diluted and spot-plated to determine the bacterial count. The 16 h growth culture was diluted to ~10^6 CFU/mL in PBS. 150 μL of this bacterial suspension was then incubated with 50 μL of test compounds in a 96 well-plate. The compound and bacteria were then incubated at 37 °C for 2h. The suspension was serially diluted 10 fold and spot-plated on […]. The viable bacteria were then counted after 48 h incubation at 37 °C. The results represented are the average of two independent experiments carried in duplicates. […]

MRSA = assay: Membrane permeabilization assay, propidium iodide uptake; assay type: cell-based, S. aureus
Protocol: The kinetics of permeabilization of membranes of MRSA and B. subtilis by the compounds was measured by the uptake of propidium iodide (PI). […] When the membrane integrity is compromised, it enters the cell and fluoresces upon binding to the DNA. Both VanQbiph (4) and VanQAmC10 (8) permeabilized the membrane in a concentration-dependent manner (Fig. S2 ^†). […] They caused gradual permeabilization against the stationary phase cells of MRSA as well (Fig. 2F). The extent of permeabilization was higher for VanQAmC10 (8) than VanQbiph (4) against both the log-phase and stationary-phase bacteria similar to that observed during depolarisation.
50 μL of serially diluted compound was added into 96 well microtiter plates. Freshly drawn, heparanized human blood was centrifuged down to obtain the erythrocytes and re-suspended to 5 vol % in PBS (pH 7.4). 150 μL of the erythrocyte suspension was added to the serially diluted compounds (from 500 µM to 2 µM). One set without compound and other with 50 μL of 1 vol % solution of Triton X-100 were kept as controls. […] 100 μL of the supernatant from each well were transferred into fresh microtiter plates, and A540 was measured.
% haemolysis = (A - A0)/(Atotal -A0) × 100, where A is the absorbance of the test well, A 0 the absorbance of the negative controls (without compound), and A total the absorbance of 100 % hemolysis wells (with Triton X -100), all at 540 nm. […]
2 h post incubation with dye, the absorbance was measured at 570 nm using 600 nm as […]
The bactericidal activity of the compounds was evaluated with the time kill kinetics assay.
MRSA ATCC 33591 cells were cultured in nutrient media at 37°C for 6 h. […] The bacterial colonies were counted and results are represented in logarithmic scale, i.e. log10 (CFU/mL). […]
were added to it the wells containing bacterial suspension. Fluorescence has monitored at excitation wavelength of 535 nm (slit width: 10 nm) and emission wavelength of 617 nm (slit width: 5 nm). As a measure of inner membrane permeabilization the uptake of PI was monitor by the increase in fluorescence for 30-50 min. […]

Compound | time to complete eradication ([1]; 10 μM) | time to complete eradication ([1]; 20 μM) | time to membrane permeabilization (MRSA; exponentially growing MRSA, 10 μM, PI uptake) | effect on membrane integrity (PI uptake) (MRSA) | effect on viable stationary phase cells ([1]; 40 μM, 24 h)
CCCCCCCCCCNC(=O)C[N+](C)(C)CCCNC(=O)C1NC(=O)C2NC(=O)C(NC(=O)C3NC(=O)C(CC(N)=O)NC(=O)C(NC(=O)C(CC(C)C)NC)C(O)c4ccc(c(Cl)c4)Oc4cc3cc(c4OC3OC(CO)C(O)C(O)C3OC3CC(C)(N)C(O)C(C)O3)Oc3ccc(cc3Cl)C2O)c2ccc(O)c(c2)-c2c(O)cc(O)cc21 (stereo not shown) [VanQAmC10 (8)] | 24 h | up to 6 h | ≤ 4 min |  | 
CNC(CC(C)C)C(=O)NC1C(=O)NC(CC(N)=O)C(=O)NC2C(=O)NC3C(=O)NC(C(=O)NC(C(=O)NCCC[N+](C)(C)Cc4ccc(-c5ccccc5)cc4)c4cc(O)cc(O)c4-c4cc3ccc4O)C(O)c3ccc(c(Cl)c3)Oc3cc2cc(c3OC2OC(CO)C(O)C(O)C2OC2CC(C)(N)C(O)C(C)O2)Oc2ccc(cc2Cl)C1O (stereo not shown) [VanQbiph (4)] |  | 24 h |  | slower permeabilization | 
CN[C@H](CC(C)C)C(=O)N[C@H]1C(=O)N[C@@H](CC(N)=O)C(=O)N[C@H]2C(=O)N[C@H]3C(=O)N[C@H](C(=O)N[C@H](C(=O)O)c4cc(O)cc(O)c4-c4cc3ccc4O)[C@H](O)c3ccc(c(Cl)c3)Oc3cc2cc(c3O[C@@H]2O[C@H](CO)[C@@H](O)[C@H](O)[C@H]2O[C@H]2C[C@](C)(N)[C@H](O)[C@H](C)O2)Oc2ccc(cc2Cl)[C@H]1O [Vancomycin, reference compound] |  |  |  | does not affect the membrane integrity | did not reduce the number of viable stationary phase cells

Source: article PMC9977398, “Next-generation membrane-active glycopeptide antibiotics that also inhibit bacterial cell division” (Chemical Science, 2023)
